Results from patent publication US9730940B2, “Purine inhibitors of human phosphatidylinositol 3-kinase delta” (priority 2012, dated 2017).

The compounds below were run against PI3K-alpha (Homo sapiens (Human), UniProt P42336) (assay: HTRF PI3K biochemical assay, alpha isoform). Conditions: ratio PI3K-alpha IC50 value/PI3K-delta IC50 value.
PI3K-alpha, sequence (P42336 whole entry, looked up, canonical isoform): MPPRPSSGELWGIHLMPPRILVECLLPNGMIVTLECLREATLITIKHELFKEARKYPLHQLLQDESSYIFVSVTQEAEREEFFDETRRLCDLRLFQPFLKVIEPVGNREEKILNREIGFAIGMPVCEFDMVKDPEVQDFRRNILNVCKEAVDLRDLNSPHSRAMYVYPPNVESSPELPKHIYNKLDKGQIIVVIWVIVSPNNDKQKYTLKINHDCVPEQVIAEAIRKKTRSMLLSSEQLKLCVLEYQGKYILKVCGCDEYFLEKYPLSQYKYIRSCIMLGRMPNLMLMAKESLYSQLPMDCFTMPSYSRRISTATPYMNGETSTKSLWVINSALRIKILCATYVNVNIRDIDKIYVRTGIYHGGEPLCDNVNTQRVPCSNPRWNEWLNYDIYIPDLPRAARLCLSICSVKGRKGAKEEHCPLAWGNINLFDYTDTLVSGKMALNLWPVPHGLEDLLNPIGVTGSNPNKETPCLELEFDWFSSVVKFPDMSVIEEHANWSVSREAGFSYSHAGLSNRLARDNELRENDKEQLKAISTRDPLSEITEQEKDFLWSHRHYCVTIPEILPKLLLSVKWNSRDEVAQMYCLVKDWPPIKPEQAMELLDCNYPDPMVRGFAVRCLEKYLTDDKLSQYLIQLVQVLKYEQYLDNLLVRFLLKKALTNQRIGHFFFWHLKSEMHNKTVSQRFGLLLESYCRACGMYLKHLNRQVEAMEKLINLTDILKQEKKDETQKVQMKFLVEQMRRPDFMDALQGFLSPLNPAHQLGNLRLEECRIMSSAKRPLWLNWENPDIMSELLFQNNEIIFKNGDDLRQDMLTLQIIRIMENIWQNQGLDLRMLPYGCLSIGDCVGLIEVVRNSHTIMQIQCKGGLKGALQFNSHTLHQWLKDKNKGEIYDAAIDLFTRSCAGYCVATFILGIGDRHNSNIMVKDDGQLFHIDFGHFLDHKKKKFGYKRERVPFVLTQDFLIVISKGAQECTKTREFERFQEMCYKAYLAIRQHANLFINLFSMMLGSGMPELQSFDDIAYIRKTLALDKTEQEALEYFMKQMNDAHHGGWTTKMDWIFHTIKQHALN
PI3K-alpha, sequence (P27986 whole entry partner, looked up, canonical isoform): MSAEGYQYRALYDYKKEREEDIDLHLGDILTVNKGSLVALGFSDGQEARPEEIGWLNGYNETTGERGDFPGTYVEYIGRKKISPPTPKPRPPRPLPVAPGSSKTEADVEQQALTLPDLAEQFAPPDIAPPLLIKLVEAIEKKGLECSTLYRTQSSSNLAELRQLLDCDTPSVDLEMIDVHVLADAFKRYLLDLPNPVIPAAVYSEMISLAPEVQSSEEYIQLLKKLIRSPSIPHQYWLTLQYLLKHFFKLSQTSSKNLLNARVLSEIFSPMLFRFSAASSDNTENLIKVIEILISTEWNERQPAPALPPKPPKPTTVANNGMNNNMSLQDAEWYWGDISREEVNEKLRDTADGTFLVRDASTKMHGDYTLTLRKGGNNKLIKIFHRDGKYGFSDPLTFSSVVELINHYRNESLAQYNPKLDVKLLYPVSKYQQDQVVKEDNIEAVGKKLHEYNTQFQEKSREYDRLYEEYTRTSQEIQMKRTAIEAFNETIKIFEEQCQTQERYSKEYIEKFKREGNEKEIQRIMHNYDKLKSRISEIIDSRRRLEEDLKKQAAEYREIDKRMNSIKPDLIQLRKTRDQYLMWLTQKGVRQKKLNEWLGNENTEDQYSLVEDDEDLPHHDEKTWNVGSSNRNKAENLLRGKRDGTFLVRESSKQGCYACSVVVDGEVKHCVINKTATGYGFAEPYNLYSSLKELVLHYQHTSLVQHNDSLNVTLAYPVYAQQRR
In the case of `CCn1ncc(-c2nc3c(O[C@H]4CCN(C(=O)c5ccnn5C(C)C)C4)ncnc3n2C)c1C` [Compound 2-52, 8-(1-ethyl-5-methyl-1H-pyrazol-4-yl)-9-methyl-6-{[(3S)-1-{[1-(1-methylethyl)-1H-pyrazol-5-yl]carbonyl}pyrrolidin-3-yl]oxy}-9H-purine], the “Relative Selectivity versus PI3Kalpha” value is reported as greater than 10. `CCn1ncc(-c2nc3c(O[C@H]4CCN(C(=O)c5ccnc(C)c5)C4)ncnc3n2C)c1C` [Compound 2-56, 8-(1-ethyl-5-methyl-1H-pyrazol-4-yl)-9-methyl-6-({(3S)-1-[(2-methylpyridin-4-yl)carbonyl]pyrrolidin-3-yl}oxy)-9H-purine] was tested, and the “Relative Selectivity versus PI3Kalpha” value was greater than 10. `CCn1ncc(-c2nc3c(O[C@H]4CCN(C(=O)c5ncoc5C)C4)ncnc3n2C)c1C` [Compound 2-57, 8-(1-ethyl-5-methyl-1H-pyrazol-4-yl)-9-methyl-6-({(3S)-1-[(5-methyl-1,3-oxazol-4-yl)carbonyl]pyrrolidin-3-yl}oxy)-9H-purine] was tested, and the “Relative Selectivity versus PI3Kalpha” value was greater than 10. In the case of `CCn1ncc(-c2nc3c(O[C@H]4CCN(C(=O)c5oc(C)nc5C)C4)ncnc3n2C)c1C` [Compound 2-58, 6-({(3S)-1-[(2,4-dimethyl-1,3-oxazol-5-yl)carbonyl]pyrrolidin-3-yl}oxy)-8-(1-ethyl-5-methyl-1H-pyrazol-4-yl)-9-methyl-9H-purine], the “Relative Selectivity versus PI3Kalpha” value is reported as greater than 10. For `CCn1ncc(-c2nc3c(O[C@H]4CCN(C(=O)c5cc(C)n(C)n5)C4)ncnc3n2C)c1C` [Compound 2-59, 6-({(3S)-1-[(1,5-dimethyl-1H-pyrazol-3-yl)carbonyl]pyrrolidin-3-yl}oxy)-8-(1-ethyl-5-methyl-1H-pyrazol-4-yl)-9-methyl-9H-purine], the “Relative Selectivity versus PI3Kalpha” value was 2. In the case of `CCn1ncc(-c2nc3c(O[C@H]4CCN(C(=O)c5cc(C(F)(F)F)nn5C)C4)ncnc3n2C)c1C` [Compound 2-61, 8-(1-ethyl-5-methyl-1H-pyrazol-4-yl)-9-methyl-6-{[(3S)-1-{[1-methyl-3-(trifluoromethyl)-1H-pyrazol-5-yl]carbonyl}pyrrolidin-3-yl]oxy}-9H-purine], the “Relative Selectivity versus PI3Kalpha” value is reported as greater than 10. With `CCn1ncc(-c2nc3c(O[C@H]4CCN(C(=O)C5CC(=O)N(C)C5)C4)ncnc3n2C)c1C` (stereo partly drawn) [Compound 2-62, 4-{[(3S)-3-{[8-(1-ethyl-5-methyl-1H-pyrazol-4-yl)-9-methyl-9H-purin-6-yl]oxy}pyrrolidin-1-yl]carbonyl}-1-methylpyrrolidin-2-one] the “Relative Selectivity versus PI3Kalpha” value was greater than 10. In the case of `CCn1ncc(C(=O)N2CC[C@H](Oc3ncnc4c3nc(-c3cnn(CC)c3C)n4C)C2)c1C` [Compound 2-63, 8-(1-ethyl-5-methyl-1H-pyrazol-4-yl)-6-({(3S)-1-[(1-ethyl-5-mcthyl-1H-pyrazol-4-yl)carbonyl]pyrrolidin-3-yl}oxy)-9-methyl-9H-purine], the “Relative Selectivity versus PI3Kalpha” value is reported as 10. `CCn1ncc(-c2nc3c(O[C@H]4CCN(C(=O)c5ccncc5)C4)ncnc3n2C)c1C` [Compound 2-64, 8-(1-ethyl-5-methyl-1H-pyrazol-4-yl)-9-methyl-6-{[(3S)-1-(pyridin-4-ylcarbonyl)pyrrolidin-3-yl]oxy}-9H-purine] was tested, and the “Relative Selectivity versus PI3Kalpha” value was greater than 10. `CCn1ncc(-c2nc3c(O[C@H]4CCN(C(=O)c5cnoc5C)C4)ncnc3n2C)c1C` [Compound 2-65, 8-(1-ethyl-5-methyl-1H-pyrazol-4-yl)-9-methyl-6-({(3S)-1-[(5-methylisoxazol-4-yl)carbonyl]pyrrolidin-3-yl}oxy)-9H-purine] was tested, and the “Relative Selectivity versus PI3Kalpha” value was greater than 10. For `CCn1ncc(-c2nc3c(O[C@H]4CCN(C(=O)c5ccccn5)C4)ncnc3n2C)c1C` [Compound 2-66, 8-(1-ethyl-5-methyl-1H-pyrazol-4-yl)-9-methyl-6-{[(3S)-1-(pyridin-2-ylcarbonyl)pyirolidin-3-yl]oxy}-9H-purine], the “Relative Selectivity versus PI3Kalpha” value was greater than 10. In the case of `CCn1ncc(-c2nc3c(O[C@H]4CCN(C(=O)c5cccn5C)C4)ncnc3n2C)c1C` [Compound 2-67, 8-(1-ethyl-5-methyl-1H-pyrazol-4-yl)-9-methyl-6-({(3S)-1-[(1-methyl-1H-pyrrol-2-yl)carbonyl]pyrrolidin-3-yl}oxy)-9H-purine], the “Relative Selectivity versus PI3Kalpha” value is reported as greater than 10. In the case of `CCc1oncc1C(=O)N1CC[C@H](Oc2ncnc3c2nc(-c2cnn(CC)c2C)n3C)C1` [Compound 2-68, 6-({(3S)-1-[(5-ethylisoxazol-4-yl)carbonyl]pyrrolidin-3-yl}oxy)-8-(1-ethyl-5-methyl-1H-pyrazol-4-yl)-9-methyl-9H-purine], the “Relative Selectivity versus PI3Kalpha” value is reported as greater than 10. In the case of `CCn1ncc(-c2nc3c(O[C@H]4CCN(C(=O)c5oncc5C)C4)ncnc3n2C)c1C` [Compound 2-69, 8-(1-ethyl-5-methyl-1H-pyrazol-4-yl)-9-methyl-6-({(3S)-1-[(4-methylisoxazol-5-yl)carbonyl]pyrrolidin-3-yl}oxy)-9H-purine], the “Relative Selectivity versus PI3Kalpha” value is reported as greater than 10. In the case of `CCn1ncc(-c2nc3c(O[C@H]4CCN(C(=O)c5ocnc5C)C4)ncnc3n2C)c1C` [Compound 2-71, 8-(1-ethyl-5-methyl-1H-pyrazol-4-yl)-9-methyl-6-({(3S)-1-[(4-methyl-1,3-oxazol-5-yl)carbonyl]pyrrolidin-3-yl}oxy)-9H-purine], the “Relative Selectivity versus PI3Kalpha” value is reported as greater than 10. In the case of `CCn1ncc(-c2nc3c(O[C@H]4CCN(C(=O)c5cn[nH]c5)C4)ncnc3n2C)c1C` [Compound 2-72, 8-(1-ethyl-5-methyl-1H-pyrazol-4-yl)-9-methyl-6-{[(3S)-1-(1H-pyrazol-4-ylcarbonyl)pyrrolidin-3-yl]oxy}-9H-purine], the “Relative Selectivity versus PI3Kalpha” value is reported as 9. In the case of `CCn1ncc(-c2nc3c(O[C@H]4CCN(C(=O)c5cncn5C)C4)ncnc3n2C)c1C` [Compound 2-73], the “Relative Selectivity versus PI3Kalpha” value is reported as greater than 10. In the case of `CCn1ncc(-c2nc3c(O[C@H]4CCN(C(=O)c5cc(C)[nH]n5)C4)ncnc3n2C)c1C` [Compound 2-75, 8-(1-ethyl-5-methyl-1H-pyrazol-4-yl)-9-methyl-6-({(3S)-1-[(5-methyl-1H-pyrazol-3-yl)carbonyl]pyrrolidin-3-yl}oxy)-9H-purine], the “Relative Selectivity versus PI3Kalpha” value is reported as 5. With `CCn1ncc(-c2nc3c(O[C@H]4CCN(C(=O)C5CC(=O)N(C(C)C)C5)C4)ncnc3n2C)c1C` (stereo partly drawn) [Compound 2-77, 4-{[(3S)-3-{[8-(1-ethyl-5-methyl-1H-pyrazol-4-yl)-9-methyl-9H-purin-6-yl]oxy}pyrrolidin-1-yl]carbonyl}-1-(1-methylethyl)pyrrolidin-2-one] the “Relative Selectivity versus PI3Kalpha” value was greater than 10. For `CCn1ncc(-c2nc3c(O[C@H]4CCN(C(=O)c5cc(C)n(C)c5C)C4)ncnc3n2C)c1C` [Compound 2-79, 8-(1-ethyl-5-methyl-1H-pyrazol-4-yl)-9-methyl-6-({(3S)-1-[(1,2,5-trimethyl-1H-pyrrol-3-yl)carbonyl]pyrrolidin-3-yl}oxy)-9H-purine], the “Relative Selectivity versus PI3Kalpha” value was greater than 10. `CCn1ncc(-c2nc3c(O[C@H]4CCN(C(=O)c5cnn(C)c5)C4)ncnc3n2C)c1C` [Compound 2-80, 8-(1-ethyl-5-methyl-1H-pyrazol-4-yl)-9-methyl-6-({(3S)-1-[(1-methyl-1H-pyrazol-4-yl)carbonyl]pyrrolidin-3-yl}oxy)-9H-purine] was tested, and the “Relative Selectivity versus PI3Kalpha” value was 6. In the case of `CCn1ncc(-c2nc3c(O[C@H]4CCN(C(=O)c5nnc(C)o5)C4)ncnc3n2C)c1C` [Compound 2-81, 8-(1-ethyl-5-methyl-1H-pyrazol-4-yl)-9-methyl-6-({(3S)-1-[(5-methyl-1,3,4-oxadiazol-2-yl)carbonyl]pyrrolidin-3-yl}oxy)-9H-purine], the “Relative Selectivity versus PI3Kalpha” value is reported as 5. With `CCn1ncc(-c2nc3c(O[C@H]4CCN(C(=O)C5CCc6nnnn65)C4)ncnc3n2C)c1C` (stereo partly drawn) [Compound 2-84, 6-{[(3S)-1-(6,7-dihydro-5H-pyrrolo[1,2-d]tetrazol-5-ylcarbonyl)pyrrolidin-3-yl]oxy}-8-(1-ethyl-5-methyl-1H-pyrazol-4-yl)-9-methyl-9H-purine (non-preferred name)] the “Relative Selectivity versus PI3Kalpha” value was greater than 10. In the case of `CCc1nc(C)c(C(=O)N2CC[C@H](Oc3ncnc4c3nc(-c3cnn(CC)c3C)n4C)C2)o1` [Compound 2-86, 6-({(3S)-1-[(2-ethyl-4-methyl-1,3-oxazol-5-yl)carbonyl]pyrrolidin-3-yl}oxy)-8-(1-ethyl-5-methyl-1H-pyrazol-4-yl)-9-methyl-9H-purine], the “Relative Selectivity versus PI3Kalpha” value is reported as greater than 10. `CCn1ncc(-c2nc3c(O[C@H]4CCN(C(=O)c5cnoc5C(C)C)C4)ncnc3n2C)c1C` [Compound 2-87, 8-(1-ethyl-5-methyl-1H-pyrazol-4-yl)-9-methyl-6-{[(3S)-1-{[5-(1-methylethyl)isoxazol-4-yl]carbonyl}pyrrolidin-3-yl]oxy}-9H-purine] was tested, and the “Relative Selectivity versus PI3Kalpha” value was greater than 10. With `CCn1ncc(-c2nc3c(O[C@H]4CCN(C(=O)c5cocn5)C4)ncnc3n2C)c1C` [Compound 2-88, 8-(1-ethyl-5-methyl-1H-pyrazol-4-yl)-9-methyl-6-{[(3S)-1-(1,3-oxazol-4-ylcarbonyl)pyrrolidin-3-yl]oxy}-9H-purine] the “Relative Selectivity versus PI3Kalpha” value was greater than 10. With `CCC(=O)N1CC[C@H](Oc2ncnc3c2nc(-c2cnc(OC)c(C)c2)n3CC)C1` [Compound 2-89, (S)-1-(3-((9-ethyl-8-(6-methoxy-5-methylpyridin-3-yl)-9H-purin-6-yl)oxy)pyrrolidin-1-yl)propan-1-one] the “Relative Selectivity versus PI3Kalpha” value was greater than 10. In the case of `CCn1ncc(-c2nc3c(O[C@H]4CCN(C(C)=O)C4)ncnc3n2C)c1C` [Compound 2-90, (S)-1-(3-((8-(1-ethyl-5-methyl-1H-pyrazol-4-yl)-9-methyl-9H-purin-6-yl)oxy)pyrrolidin-1-yl)ethanone], the “Relative Selectivity versus PI3Kalpha” value is reported as greater than 10. With `CCn1ncc(-c2nc3c(O[C@H]4CCN(C(=O)C(C)C)C4)ncnc3n2C)c1C` [Compound 2-91, (S)-1-(3-((8-(1-ethyl-5-methyl-1H-pyrazol-4-yl)-9-methyl-9H-purin-6-yl)oxy)pyrrolidin-1-yl)-2-methylpropan-1-one] the “Relative Selectivity versus PI3Kalpha” value was greater than 10. `CCn1ncc(-c2nc3c(O[C@H]4CCN(C(=O)C(C)(C)C)C4)ncnc3n2C)c1C` [Compound 2-92, (S)-1-(3-((8-(1-ethyl-5-methyl-1H-pyrazol-4-yl)-9-methyl-9H-purin-6-yl)oxy)pyrrolidin-1-yl)-2,2-dimethylpropan-1-one] was tested, and the “Relative Selectivity versus PI3Kalpha” value was greater than 10.
